System: cancer subjects with opioid-induced constipation (tumor disease progression)
Experiment: Pooled analysis of Study 1 and Study 2: adverse events of disease progression
Format: in vivo, human
Excerpt: As part of the routine adverse event (AE) evaluations filled out by all investigators in the studies described in Examples 1 and 2, AEs of tumor progression were tabulated. Both studies were randomized, placebo-controlled trials that involved a 2-week treatment period followed by a 2-week follow-up period. The enrolled subjects were advanced illness (incurable cancer or other end-stage disease) subjects with OIC who were receiving stable doses of laxatives and opioid analgesics. In the context of the study, a stable dose of opioid analgesics was defined as no reduction in the dose of opioid analgesic of ≥50% for at least three days before the first dose of MNTX. A stable dose of laxatives was defined as having a standing laxative order (and not PRN, or as-needed) for at least three days before the first dose of MNTX. A diagnosis of constipation was provided if the subject had (a) fewer than 3 bowel movements during the previous week by history and no clinically notable laxation in the 24 hours before the first dose of MNTX, or (b) no clinical notable laxation in the 48 hours before the first dose of MNTX. In Study 1 (Example 1), subjects received subcutaneous MNTX 0.15 mg/kg or placebo (PBO) every other day (QOD), and in Study 2 (Example 2) subjects received subcutaneous MNTX (8 mg or 12 mg based on body weight 38 to <62 kg or ≥62 kg, respectively) or placebo administered QOD. The 12 mg fixed dose was designed to correspond to the 0.15 mg/kg weight-based dose. Rescue-laxatives, enemas or manual disimpactions were not administered within 4 hours before or after each dose of MNTX. For the purpose of this analysis, only subjects with a cancer-related diagnosis were considered. For statistical significance testing, the Fisher's exact test was used (p<0.05).
Table 1 and FIG. 1 provide AEs of disease progression in the pooled analysis and for each individual study during the double-blind phase of the studies.
Furthermore, when the pool of MNTX-treated subjects across both studies was examined, there was a significant decrease in the percentage of subjects with disease progression between subjects who responded to MNTX treatment and those who were considered non-responders. A subject with laxation within 4 hours after two of the first four doses of MNTX was considered a responder.
For the analysis carried out in this Example and in Example 3, a subject with laxation occurring from 0-4 hours after two of the first four doses of MNTX was considered a MNTX responder or responsive subject. Data for placebo patients who elected to participate in the open-label MNTX treatment phase was collected from the first 4 doses of open-label treatment. Data for the MNTX-treated patients was collected from the first 4 doses of the double-blind phase of the study.

C[N@+]1(CC2CC2)CC[C@]23c4c5ccc(O)c4O[C@H]2C(=O)CC[C@@]3(O)[C@H]1C5.[Br-] [MNTX, (R)—N-(cyclopropylmethyl) noroxymorphone methobromide]
Adverse Events of Disease Progression, n/N (Combined (Study 1 & Study 2), double-blind phase, cancer subjects): 16/116 | % Progression (MNTX Non-Responders): 22.0% | Disease Progression (number of subjects) (MNTX Non-Responders): 11 | No Disease Progression (number of subjects) (MNTX Non-Responders): 39 | % Progression (MNTX Responders): 7.6% | No Disease Progression (number of subjects) (MNTX Responders): 61 | Disease Progression (number of subjects) (MNTX Responders (laxation within 4 hours after two of the first four doses)): 5 | No Disease Progression (number of subjects) (MNTX Total): 100 | Disease Progression (number of subjects) (MNTX Total, pooled): 16 | Adverse Events of Disease Progression, % (Study 1, double-blind phase): (16.2%) | Adverse Events of Disease Progression, n/N (Study 1, double-blind phase): 6/37 | Adverse Events of Disease Progression, % (Study 2, double-blind phase): (12.7%) | Adverse Events of Disease Progression, n/N (Study 2, double-blind phase): 10/79 | reduction in the incidence of AE of disease progression versus placebo (pooled analysis): ~46%
